In patent US20100184807A1, “Methods to inhibit tumor cell growth by using proton pump inhibitors” (Bio-Quant, Inc., priority 2008, published 2010):

Key:
Assay in all cases: MTT tumor cell growth assay
Assay type in all cases: cell-based
[1] = test system: KU812 (leukemia); details: KU812 cells, lansoprazole 1-100 μM, 48 hours
Protocol: (§1) In one study, adherent cells were plated approximately 16-24 hours before the day of the experiment in 180 μl growth media. On the day of the experiment, the plated adherent cells were analyzed and counted and suspension cells were plated in 180 μl growth media. 10× lansoprazole compounds and vehicle was prepared. The 10× lansoprazole compounds were prepared by diluting lansoprazole to final concentrations of 100 μM, 30 μM, 10 μM, 3 μM, and 1 μM. A vehicle was prepared by preparing a solution of PBS, equivalent to the volume used for 10 μM lansoprazole wherein the 1× solution constitutes ˜0.06% PBS. 10 μl of the various 10× lansoprazole solutions and the vehicle were added to the cells. The cells were incubated at 37° C., 5% CO2 for 48 hours. The media was then aspirated. The cell suspension was then spun at 1500 RPM for 10 minutes. The media was slowly removed. 200 μl of MTT solution was added to each well with a concentration of 0.863 mg/ml MTT in the growth media. The cells were incubated at 37° C., 5% CO2 for 4 hours and the medium is then aspirated. The plate containing the cell suspension was then spun at 1500 RPM for 10 minutes. The media was slowly removed using a multichannel pipettor. 100 μl of DMSO was then added to each well. The cells were incubated at 37° C., 5% CO2 for 5 minutes and the absorbance was obtained at 560 nm using a Dynex Opsys MR plate reader. The cells used for this procedure were the following cell lines: IGROV1 (ovarian cancer); OVCAR 8 (ovarian cancer); ES-2 (ovarian cancer); CAOV3 (ovarian cancer); OVCAR5 (ovarian cancer); SUDHL4 (lymphoma); RPMI8226 (myeloma); RPMI6666 (Hodgkin's lymphoma); NC37 (lymphoma); GDM-1 (leukemia); MC/CAR (prostate cancer); DU-145 (prostate cancer), J45-01 (leukemia), MOLT3 (leukemia), HUT78, J-gamma-1 (leukemia), MCF7 […], COL0205 (colon cancer), HL60 CLONE 15 (leukemia), T47D (breast cancer), P116 (intestinal cancer), KU812 (leukemia), SW620 (colon cancer), MK92-M1 (lymphoma), MV-4-11 (leukemia), HS578T (breast cancer), HT29 (colon cancer), HCT 116 (colon cancer), CAKI-1 (kidney cancer), A549 (lung cancer), H460 (lung cancer), A3 (colon cancer), MDA-MB231 […], MALME 3M (melanoma), RXF393 (kidney cancer), RS4.11 (leukemia), PC3 (prostate cancer), OVCAR3 (ovarian cancer), MDA-MB435 (melanoma), HUT102 (lymphoma), HL60 (leukemia), CCRF-CEM (leukemia), HUT78 (lymphoma), 786-O (kidney cancer), ACHN (kidney cancer), A498 (kidney cancer), H226 (lung cancer), H522 (lung cancer), HOP92 (lung cancer), SNB 19 (brain cancer), OVCAR4 (ovarian cancer), H9 (lymphoma), UO-31 (kidney cancer), HH (lymphoma), DAUDI (leukemia), LOXIMVI (melanoma), NAMALWA (lymphoma), EKVX (lung cancer), DOHH2 (lymphoma), SNB75 (brain cancer), SKMEL28 (melanoma), SKMEL5 (melanoma), SKMEL2 (melanoma), M14 (melanoma), UACC 257 (melanoma), H332M (lung cancer), KM12 (colon cancer), HCC2998 (colon cancer), G401 (kidney cancer), RS1184 (lymphoma), MC116 (leukemia), MOLT4 (leukemia), JM1 (liver cancer), HOP-62 (lung cancer), HCT-15 (colon cancer), SF-539 (brain cancer), SF295 (brain cancer), ST486 (lymphoma), U251 (brain cancer), and UACC-62 (melanoma).

[2] = test system: RS4.11 (leukemia); details: RS4.11 cells, lansoprazole 1-100 μM, 48 hours
Protocol: as §1

[3] = test system: 786-O (kidney cancer); details: 786-O cells, lansoprazole 1-100 μM, 48 hours
Protocol: as §1

[4] = test system: MC116 (leukemia); details: MC116 cells, lansoprazole 1-100 μM, 48 hours
Protocol: as §1

[5] = test system: H522 (lung cancer); details: H522 cells, lansoprazole 1-100 μM, 48 hours
Protocol: as §1

[6] = test system: DAUDI (leukemia); details: DAUDI cells, lansoprazole 1-100 μM, 48 hours
Protocol: as §1

[7] = test system: UACC-62 (melanoma); details: UACC-62 cells, lansoprazole 1-100 μM, 48 hours
Protocol: as §1

[8] = test system: SNB19 (brain cancer); details: SNB19 cells, lansoprazole 1-100 μM, 48 hours
Protocol: (§2) In one study, adherent cells were plated approximately 16-24 hours before the day of the experiment in 180 μl growth media. On the day of the experiment, the plated adherent cells were analyzed and counted and suspension cells were plated in 180 μl growth media. 10× lansoprazole compounds and vehicle was prepared. The 10× lansoprazole compounds were prepared by diluting lansoprazole to final concentrations of 100 μM, 30 μM, 10 μM, 3 μM, and 1 μM. A vehicle was prepared by preparing a solution of PBS, equivalent to the volume used for 10 μM lansoprazole wherein the 1× solution constitutes ˜0.06% PBS. 10 μl of the various 10× lansoprazole solutions and the vehicle were added to the cells. The cells were incubated at 37° C., 5% CO2 for 48 hours. The media was then aspirated. The cell suspension was then spun at 1500 RPM for 10 minutes. The media was slowly removed. 200 μl of MTT solution was added to each well with a concentration of 0.863 mg/ml MTT in the growth media. The cells were incubated at 37° C., 5% CO2 for 4 hours and the medium is then aspirated. The plate containing the cell suspension was then spun at 1500 RPM for 10 minutes. The media was slowly removed using a multichannel pipettor. 100 μl of DMSO was then added to each well. The cells were incubated at 37° C., 5% CO2 for 5 minutes and the absorbance was obtained at 560 nm using a Dynex Opsys MR plate reader.

[9] = test system: SF295 (brain cancer); details: SF295 cells, lansoprazole 1-100 μM, 48 hours
Protocol: as §2

[10] = test system: U251 (brain cancer); details: U251 cells, lansoprazole 1-100 μM, 48 hours
Protocol: as §2

[11] = test system: SF-539 (brain cancer); details: SF-539 cells, lansoprazole 1-100 μM, 48 hours
Protocol: as §2

Measured: tumor cell growth reduction

Cc1c(OCC(F)(F)F)ccnc1C[S+]([O-])c1nc2ccccc2[nH]1 (centres unmarked) [lansoprazole]
significant tumor cell growth reduction: all assays above
